Laboratory results as given in patent publication US20160318987A1 (MEDIMMUNE LIMITED, priority 2013, published 2016).
Read-outs that look alike come from different tables or passages of the source. Where a SMILES comes first, the peptide text is derived from it. Where no end group is shown, it is not given here. Side-chain parts run from the residue outwards. [ ]: non-standard residue; d: D form. αMeF = C[C@](N)(Cc1ccccc1)C(=O)O; Nle = CCCC[C@H](N)C(=O)O; Aib = CC(C)(N)C(=O)O; Mal = maleimide

What was measured:
[1] = biological target: T1, hGLP-1R (Homo sapiens, UniProt P43220); assay: cAMP functional assay, cells expressing human GLP-1 receptor (primary assay); type: cell-based; details: n = 2
T1 construct: expressed in transfected cells
T1 sequence (P43220 24-463): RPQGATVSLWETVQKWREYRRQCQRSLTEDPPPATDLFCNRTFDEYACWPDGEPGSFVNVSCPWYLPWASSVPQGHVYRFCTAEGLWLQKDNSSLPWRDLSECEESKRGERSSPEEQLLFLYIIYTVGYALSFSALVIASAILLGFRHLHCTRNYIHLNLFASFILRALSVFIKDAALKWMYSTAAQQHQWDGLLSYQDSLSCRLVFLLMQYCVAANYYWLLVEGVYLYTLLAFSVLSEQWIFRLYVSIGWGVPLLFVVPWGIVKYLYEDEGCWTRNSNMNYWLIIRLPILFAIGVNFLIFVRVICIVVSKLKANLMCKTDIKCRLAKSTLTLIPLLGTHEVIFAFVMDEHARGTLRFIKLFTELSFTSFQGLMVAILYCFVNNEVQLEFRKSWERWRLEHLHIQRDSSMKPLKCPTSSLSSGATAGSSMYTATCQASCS
Method: (§1) The biological activities/receptor potencies of the synthetic GLP-1 peptides described herein are suitably tested for biological activity, e.g., stimulation of one or more cellular receptor responses. Stable cell lines expressing human, mouse, rat, or dog GLP-1 receptor (GLP-1R), glucagon receptor (GCGR) or glucose-dependent insulinotropic peptide (gastric inhibitory polypeptide) receptor (GIPR) are generated in HEK293 cells or CHO cells by standard methods.
(§2) cAMP assays were performed using “assay buffer”: Assay Buffer: 0.1% BSA (Sigma #A3059) in HBSS (Sigma #H8264) with 25 mM HEPES, pH 7.4 and containing 0.5 mM IBMX (Sigma #17018).
(§3) Low protein binding 384-well plates (Greiner #781280) are used to perform eleven 1 in 5 serial dilutions of test samples which are made in assay buffer. All sample dilutions are made in duplicate.
(§4) A frozen cryo-vial of cells expressing the receptor of interest is thawed rapidly in a water-bath, transferred to pre-warmed assay buffer and spun at 240× g for 5 minutes. Cells are re-suspended in assay buffer at a batch-dependent optimized concentration (e.g. hGCGR cells at 2×10^5 cells/ml, hGLP-1R and hGIPR cells at 1×10^5 cells /ml).
(§5) From the dilution plate, a 5 μL replica is stamped onto a black shallow-well u-bottom 384-well plate (Corning #3676). To this, 5 μL cell suspension is added and the plates incubated at room temperature for 30 minutes.
(§6) cAMP levels are measured using a commercially available cAMP dynamic 2 HTRF kit (Cisbio, Cat #62AM4PEJ), following the two step protocol as per manufacturer's recommendations. In brief; anti-cAMP cryptate (donor fluorophore) and cAMP-d2 (acceptor fluorophore) are made up separately by diluting each 1/20 in conjugate & lysis buffer provided in the kit. 5 μL anti-cAMP cryptate is added to all wells of the assay plate, and 5 μL cAMP-d2 is added to all wells except non-specific binding (NSB) wells, to which conjugate and lysis buffer are added. Plates are incubated at room temperature for one hour and then read on an Envision (Perkin Elmer) using excitation wavelength of 320 nm and emission wavelengths of 620 nm & 665 nm. EC50 values of the synthetic peptides determined in cAMP assays are then determined.

[2] = biological target: T2, hGIP-R (Homo sapiens, UniProt P48546); assay: cAMP functional assay, cells expressing human GIP receptor (primary assay); type: cell-based; details: n = 2
T2 construct: expressed in transfected cells
T2 sequence (P48546 22-466): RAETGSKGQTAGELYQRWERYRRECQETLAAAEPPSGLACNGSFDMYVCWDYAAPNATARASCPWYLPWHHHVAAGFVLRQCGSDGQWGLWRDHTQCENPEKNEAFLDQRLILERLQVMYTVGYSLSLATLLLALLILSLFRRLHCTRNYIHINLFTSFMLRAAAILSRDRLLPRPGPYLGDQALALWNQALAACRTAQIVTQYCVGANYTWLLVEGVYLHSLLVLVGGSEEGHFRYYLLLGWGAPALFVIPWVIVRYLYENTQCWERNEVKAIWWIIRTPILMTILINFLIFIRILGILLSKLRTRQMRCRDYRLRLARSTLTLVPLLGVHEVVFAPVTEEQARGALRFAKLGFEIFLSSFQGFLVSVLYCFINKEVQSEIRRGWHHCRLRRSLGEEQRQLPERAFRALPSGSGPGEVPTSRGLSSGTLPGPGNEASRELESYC
Method: as §1, §2, §3, §4, §5, §6

EC50 [1] [nM] | EC50 [2] [nM] | EC50 ([1]; read-out: Primary assay EC50 (n = 2) hGLP-1R) [nM] | Compound
0.0163 | 102 | – | CC[C@H](C)[C@H](NC(=O)[C@H](Cc1ccccc1)NC(=O)[C@H](CCC(=O)O)NC(=O)[C@H](CCCCN)NC(=O)[C@H](C)NC(=O)[C@H](C)NC(=O)[C@H](CCC(N)=O)NC(=O)CNC(=O)[C@H](CCC(=O)O)NC(=O)[C@H](CC(C)C)NC(=O)[C@H](Cc1ccccc1)NC(=O)[C@H](CO)NC(=O)[C@H](CO)NC(=O)[C@@H](NC(=O)[C@H](CC(=O)O)NC(=O)[C@H](CO)NC(=O)[C@@H](NC(=O)[C@H](Cc1ccccc1)NC(=O)[C@@H](NC(=O)CNC(=O)[C@H](CCC(=O)O)NC(=O)C(C)(C)NC(=O)[C@@H](N)Cc1c[nH]cn1)[C@@H](C)O)[C@@H](C)O)C(C)C)C(=O)N[C@@H](C)C(=O)N[C@@H](Cc1ccccc1)C(=O)N[C@@H](CC(C)C)C(=O)N[C@H](C(=O)N[C@@H](CCCCN)C(=O)NCC(=O)N[C@@H](CCCNC(=N)N)C(N)=O)C(C)C [SEQ ID NO: 18, H-(Aib)^2-EGT^5-FTSDV^10 SS-(F)^13-LE^15 GQAAK^20 EFIA-(F)^25 LVKGR^30] (H-H[Aib]EGTFTSDVSSFLEGQAAKEFIAFLVKGR-NH2)
0.026 | 102 | – | CC[C@H](C)[C@H](NC(=O)[C@](C)(Cc1ccccc1)NC(=O)[C@H](CCC(=O)O)NC(=O)[C@H](CCCCN)NC(=O)[C@H](C)NC(=O)[C@H](C)NC(=O)[C@H](CCC(N)=O)NC(=O)CNC(=O)[C@H](CCC(=O)O)NC(=O)[C@H](CC(C)C)NC(=O)[C@](C)(Cc1ccccc1)NC(=O)[C@H](CO)NC(=O)[C@H](CO)NC(=O)[C@@H](NC(=O)[C@H](CC(=O)O)NC(=O)[C@H](CO)NC(=O)[C@@H](NC(=O)[C@](C)(Cc1ccccc1)NC(=O)[C@@H](NC(=O)CNC(=O)[C@H](CCC(=O)O)NC(=O)C(C)(C)NC(=O)[C@@H](N)Cc1c[nH]cn1)[C@@H](C)O)[C@@H](C)O)C(C)C)C(=O)N[C@@H](C)C(=O)N[C@@](C)(Cc1ccccc1)C(=O)N[C@@H](CC(C)C)C(=O)N[C@H](C(=O)N[C@@H](CCCCN)C(=O)NCC(=O)N[C@@H](CCCNC(=N)N)C(N)=O)C(C)C [SEQ ID NO: 19, H-(Aib)^2-EGT^5-(α-MeF)^6-TSDV^10 SS-(α-MeF)^13-LE^15 GQAAK^20 E-(α-MeF)^22-IA-(α-MeF)^25 LVKGR^30] (H-H[Aib]EGT[αMeF]TSDVSS[αMeF]LEGQAAKE[αMeF]IA[αMeF]LVKGR-NH2)
0.00951 | 102 | – | CC[C@H](C)[C@H](NC(=O)[C@H](Cc1ccccc1)NC(=O)[C@H](CCC(=O)O)NC(=O)[C@H](CCCCN)NC(=O)[C@H](C)NC(=O)[C@H](C)NC(=O)[C@H](CCC(N)=O)NC(=O)CNC(=O)[C@H](CCC(=O)O)NC(=O)[C@H](CC(C)C)NC(=O)[C@H](Cc1ccc(O)cc1)NC(=O)[C@H](CO)NC(=O)[C@H](CO)NC(=O)[C@@H](NC(=O)[C@H](CC(=O)O)NC(=O)[C@H](CO)NC(=O)[C@@H](NC(=O)[C@H](Cc1ccccc1)NC(=O)[C@H](CO)NC(=O)CNC(=O)[C@H](CCC(=O)O)NC(=O)C(C)(C)NC(=O)[C@@H](N)Cc1c[nH]cn1)[C@@H](C)O)C(C)C)C(=O)N[C@@H](C)C(=O)N[C@@H](Cc1c[nH]c2ccccc12)C(=O)N[C@@H](CC(C)C)C(=O)N[C@H](C(=O)N[C@@H](CCCCN)C(=O)NCC(=O)N[C@@H](CCCNC(=N)N)C(N)=O)C(C)C [SEQ ID NO: 28, H-(Aib)^2-EG-(S)^5-FTSDV^10 SSYLE^15 GQAAK^20 EFIAW^25 LVKGR^30]
0.0126 | 102 | – | CC[C@H](C)[C@H](NC(=O)[C@](C)(Cc1ccccc1)NC(=O)[C@H](CCC(=O)O)NC(=O)[C@H](CCCCN)NC(=O)[C@H](C)NC(=O)[C@H](C)NC(=O)[C@H](CCC(N)=O)NC(=O)CNC(=O)[C@H](CCC(=O)O)NC(=O)[C@H](CC(C)C)NC(=O)[C@](C)(Cc1ccccc1)NC(=O)[C@H](CO)NC(=O)[C@H](CO)NC(=O)[C@@H](NC(=O)[C@H](CC(=O)O)NC(=O)[C@H](CO)NC(=O)[C@@H](NC(=O)[C@](C)(Cc1ccccc1)NC(=O)[C@@H](NC(=O)CNC(=O)[C@H](CCC(=O)O)NC(=O)C(C)(C)NC(=O)[C@@H](N)Cc1c[nH]cn1)[C@@H](C)O)[C@@H](C)O)C(C)C)C(=O)N[C@@H](C)C(=O)N[C@@H](Cc1c[nH]c2ccccc12)C(=O)N[C@@H](CC(C)C)C(=O)N[C@H](C(=O)N[C@@H](CCCCN)C(=O)NCC(=O)N[C@@H](CCCNC(=N)N)C(N)=O)C(C)C [SEQ ID NO: 29, H-(Aib)^2-EGT^5-(α-MeF)^6-TSDV^10 SS-(α-MeF)^13-LE^15 GQAAK^20 E-(α-MeF)^22-IAW^25 LVKGR^30] (H-H[Aib]EGT[αMeF]TSDVSS[αMeF]LEGQAAKE[αMeF]IAWLVKGR-NH2)

Second part, the compound before the results:

Compound | EC50 [1] [nM] | EC50 [2] [nM] | EC50 ([1]; read-out: Primary assay EC50 (n = 2) hGLP-1R) [nM]
CC[C@H](C)[C@H](NC(=O)C(C)(C)NC(=O)[C@H](CCC(=O)O)NC(=O)[C@H](CCCCN)NC(=O)[C@H](C)NC(=O)[C@H](C)NC(=O)[C@H](CCC(N)=O)NC(=O)CNC(=O)[C@H](CCC(=O)O)NC(=O)[C@H](CC(C)C)NC(=O)C(C)(C)NC(=O)[C@H](CO)NC(=O)[C@H](CO)NC(=O)[C@@H](NC(=O)[C@H](CC(=O)O)NC(=O)[C@H](CO)NC(=O)[C@@H](NC(=O)C(C)(C)NC(=O)[C@@H](NC(=O)CNC(=O)[C@H](CCC(=O)O)NC(=O)C(C)(C)NC(=O)[C@@H](N)Cc1c[nH]cn1)[C@@H](C)O)[C@@H](C)O)C(C)C)C(=O)N[C@@H](C)C(=O)NC(C)(C)C(=O)N[C@@H](CC(C)C)C(=O)N[C@H](C(=O)N[C@@H](CCCCN)C(=O)NCC(=O)N[C@@H](CCCNC(=N)N)C(N)=O)C(C)C [SEQ ID NO: 16, H-(Aib)^2-EGT^5-(Aib)^6-TSDV^10 SS-(Aib)^13-LE^15 GQAAK^20 E-(Aib)^22-IA-(Aib)^25 LVKGR^30] (H-H[Aib]EGT[Aib]TSDVSS[Aib]LEGQAAKE[Aib]IA[Aib]LVKGR-NH2) | 102 | 102 | –
CCCC[C@H](NC(=O)[C@H](C)NC(=O)[C@@H](NC(=O)[C@H](CCCC)NC(=O)[C@H](CCC(=O)O)NC(=O)[C@H](CCCCN)NC(=O)[C@H](C)NC(=O)[C@H](C)NC(=O)[C@H](CCC(N)=O)NC(=O)CNC(=O)[C@H](CCC(=O)O)NC(=O)[C@H](CC(C)C)NC(=O)[C@H](CCCC)NC(=O)[C@H](CO)NC(=O)[C@H](CO)NC(=O)[C@@H](NC(=O)[C@H](CC(=O)O)NC(=O)[C@H](CO)NC(=O)[C@@H](NC(=O)[C@H](CCCC)NC(=O)[C@@H](NC(=O)CNC(=O)[C@H](CCC(=O)O)NC(=O)C(C)(C)NC(=O)[C@@H](N)Cc1c[nH]cn1)[C@@H](C)O)[C@@H](C)O)C(C)C)[C@@H](C)CC)C(=O)N[C@@H](CC(C)C)C(=O)N[C@H](C(=O)N[C@@H](CCCCN)C(=O)NCC(=O)N[C@@H](CCCNC(=N)N)C(N)=O)C(C)C [SEQ ID NO: 17, H-(Aib)^2-EGT^5-(Nle)^6-TSDV^10 SS-(Nle)^13-LE^15 GQAAK^20 E-(Nle)^22-IA-(Nle)^25 LVKGR^30] (H-H[Aib]EGT[Nle]TSDVSS[Nle]LEGQAAKE[Nle]IA[Nle]LVKGR-NH2) | 3.48 | 102 | –
H-(Aib)^2-EG-(S)^5-(α-MeF)^6-TSDV^10 SS-(α-MeF)^13-LE^15 GQAAK^20 E-(α-MeF)^22-IA-(α-MeF)^25 LVKG-(G)^30-(SSG)3-(Cys-Mal-mPEG)[40 kD] (H[Aib]EGS[αMeF]TSDVSS[αMeF]LEGQAAKE[αMeF]IA[αMeF]LVKGGSSGSSGSSGC([Mal-mPEG 40 kDa]); not fully specified (C-terminus); printed as H-(Aib)^2-EG-(S)^5-(α-MeF)^6-TSDV^10 SS-(α-MeF)^13-LE^15 GQAAK^20 E-(α-MeF)^22-IA-(α-MeF)^25 LVKG-(G)^30-(SSG)3-(Cys-Mal-mPEG)[40 kD]) [SEQ ID NO: 50] | – | – | 0.0278
